Test results taken from patent US20260248872A1, “WITHANIA SOMNIFERA COMPOSITION FOR IMPROVING MEMORY AND COGNITION” (ARJUNA NATURAL PRIVATE LIMITED, priority 2023, published 2026).

Tests used:
Type in all cases: in vivo, rat
male SD rats [1] = assay: Cooks pole climbing test, conditioned avoidance, scopolamine-induced amnesia; conditions: scopolamine 0.6 mg/kg i.p., Ashwagandha extract 100 mg/kg, Piracetam 200 mg/kg, Mean ± SEM (n = 6)
Procedure: (§1) Twenty-four male SD rats were divided into four groups comprising of 6 rats in each group. The animals were treated as per the following details: • Group 1: Normal control (0.5% Polysorbate 80; 10 ml/kg) • Group 2: Untreated control (Scopolamine; 0.6 mg/kg i.p.) • Group 3: Piracetam—200 mg/kg+Scopolamine 0.6 mg/kg i.p. • Group 4: Ashwagandha extract (Sample 4)—100 mg/kg+Scopolamine 0.6 mg/kg i.p.
(§2) The vehicle/extract/standard was administered daily for 10 consecutive days. Habituation to swimming was conducted on day 6 of the experiment. Scopolamine was injected 30 minutes after the vehicle/extract/standard to the designated groups. The following behavioural test was conducted at the end of the treatment by using Elevated plus maze apparatus, Y maze model and Cooks pole climbing method.
Pole climbing test: Rats were trained in such a way that the animal had to climb the pole (shock free zone) within 30 s to avoid a shock. The shock was preceded by a buzzer that lasted for 15 s. The animals were trained to climb the pole at the sound of the buzzer (conditioned avoidance response). At particular intervals, 20 trials were given for each animal and average of the shock avoidance and mistakes were recorded. Trained animals were assayed by conditioned avoidance responses.

male SD rats [2] = assay: Y-Maze model, scopolamine-induced amnesia; conditions: scopolamine 0.6 mg/kg i.p., Ashwagandha extract 100 mg/kg, Piracetam 200 mg/kg, Mean ± SEM (n = 6)
Procedure: as §1, §2
Y-Maze model—The treatment was started (as per the groups mentioned) for animals from the day 1 and continues up to day 8. […] Briefly, each time animals were placed just inside arm B facing away from the center and allowed to move through apparatus for 8 min, while being monitored by tracking system. […] Each arm entry (defined as all four paws entering arm) was scored and recorded. Animals were returned to home cage and numbers of fecal pellets were counted in the Y maze and data was recorded. […]

male SD rats [3] = assay: Elevated plus maze, transfer latency, scopolamine-induced amnesia; conditions: scopolamine 0.6 mg/kg i.p., Ashwagandha extract 100 mg/kg, Piracetam 200 mg/kg, 10 days, Mean ± SEM (n = 6)
Procedure: as §1, §2
The elevated plus-maze consists of two open arms and two closed arms (50×10×40 cm each) were elevated to a height of 50 cm. The rats were placed individually at the end of an open arm facing away from the central platform, and the time taken by them to move from there to either of the close arm transfer latency was recorded. […] The rats were allowed to explore the maze for another 10 seconds and then return to the home cage. […] On the 10th day Standard and test substances were administered orally 30 mins before scopolamine injection transfer latency was recorded.

male SD rats [4] = assay: Morris Water Maze (MWM), scopolamine-induced amnesia; conditions: scopolamine 0.6 mg/kg i.p., Ashwagandha extract 100 mg/kg, Piracetam 200 mg/kg, mean
Procedure: as §1, §2
The MWM consists of a circular pool (180 cm in diameter and 60 cm in height) with a featureless inner surface. The circular pool was filled with water (23±1° C.) up to a height of 40 cm. The pool was divided into four quadrants of equal area. The escape platform was centered in one of the four quadrants. The day before the training experiments (day 6), animals were habituated to swim training for 60 s in the absence of the platform. The animals were treated with vehicle/extract/standard drug for 6 days. On day 7, 30 min after the administration of vehicle/extract/standard drug, scopolamine (0.6 mg/kg, i.p.) was injected. Training session was started 30 min after scopolamine administration. The rats were given four trial sessions each day for four consecutive days (day 7-10), with an inter-trial interval of 15 min, and the escape latencies were recorded. Once the rat located the platform, it was permitted to remain on it for 15 s to observe the vital clues. […] On day 11, the probe test was performed by removing the platform from the pool and a cut-off time of 60 s was kept for exploring. The time spent by the animal in the target quadrant was recorded. The higher value of the time spent in quadrant indicate better retention ability as the animal remembered the position of the platform.

## NC(=O)CN1CCCC1=O [Piracetam]
Male SD rats [1]
  Avoidance/Escape latency: 6.00 ± 0.89 s
Male SD rats [2]
  Number of Arm entries: 5.00 ± 0.89
  Retention Latency: 2.07 ± 0.46 min
Male SD rats [3]
  Transfer Latency: 7.00 ± 0.89 s
Male SD rats [4]; MWM Day 7
  Time to reach escape platform on training days: 74.25 s
Male SD rats [4]; MWM Day 8
  Time to reach escape platform on training days: 47.33 s
Male SD rats [4]; MWM Day 9
  Time to reach escape platform on training days: 9.83 s
Male SD rats [4]; MWM Day 10
  Time to reach escape platform on training days: 5.25 s
